Test results as given in patent publication US6713607B2 (Wyeth, priority 1994, dated 2004).

What was measured:
[1] = test system: mitogen-stimulated thymocyte proliferation; experiment: LAF, mitogen-stimulated thymocyte proliferation assay; type: cell-based, murine
210 kDa Protein [2] = target: 210 kDa Protein (Homo sapiens, UniProt P42345); experiment: Modified isolation procedure: no exogenous FKBP, streptavidin-conjugated resin in place of glutathione resin; type: binding
210 kDa Protein [3] = target: T1, 210 kDa Protein (Homo sapiens, UniProt P42345+P62942); experiment: Affinity isolation of the 210 kDa protein from Molt 4 membrane preparations with GST-FKBP12 complexed to rapamycin or analog (binding of analog-FKBP12 complexes); settings: isolation procedure of Example 1, Molt 4 cells
T1 construct: These proteins are isolated from membrane preparations of Molt 4 T cell leukemia; endogenous in cells; host or cells: Molt 4 cells (CHAPSO-solubilized membrane fraction); The partner GST-FKBP12 was made in house in recombinant E. coli (pGEX-FKBP)
Experimental: Molt 4 cells (1×10^9) were grown in standard media (RPMI 1640 containing 100 U/ml pennicillin, 100 ug/ml L-glutamine, 10% FCS). The cells were harvested and rinsed 3× with PBS (50 mM phosphate buffer, pH 7.0, 150 mM NaCl), flash frozen in dry-ice ethanol bath and stored at −80° C. On ice, the cells were thawed and lysed using a dounce homogenizer with B pestle in 5 ml of buffer A (10 mM Hepes, pH 7.5, 20 mM KCl, 1 mM EDTA, 0.4 mM PMSF and 2 mM 2-ME). After the debris was cleared by centrifugation at 1600 g for 10 min. and the membrane fraction was concentrated by 100,000 g centrifugation (1 hour), the 100,000 g pellet was incubated in 3 ml buffer B (50 mM Tris, pH 7.2, 100 mM NaCl, 20 mM KCl, 0.2 mM PMSF, 1 mM 2-ME, 2 mM CaCl2, 2 mM MgCl2, 5 μg/ml aprotinin, leupeptin, pepstatin A and antipain), containing 12 mM CHAPSO for two hours at 4° C. The solubilized membrane proteins were separated from the debris by a 100,000 g centrifugation. […] The supernatant was then incubated for 2 hours at 4° C. with 100 ul glutathione resin (1:1 Buffer B). Nonspecific proteins were rinsed 5× with buffer C (buffer B+0.1% Triton×100) and the proteins eluted from the resin in Laemli buffer by incubation at 95° C. for 3 minutes and microcentrifugation. The proteins were separated by size using a 7% SDS-PAGE followed by silver stain.

FKBP12 = FKBP12 (Homo sapiens, UniProt P62942); experiment: Inhibition of PPIase activity of FKBP12; type: biochemical; settings: read-out: PPlase(Ki)
Chain of FKBP12 (P62942 whole entry, species assumed): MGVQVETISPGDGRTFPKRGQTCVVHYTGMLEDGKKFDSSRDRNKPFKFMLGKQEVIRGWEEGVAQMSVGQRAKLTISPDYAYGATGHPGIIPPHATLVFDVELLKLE

T1 sequence (P62942 whole entry, other chains not shown): as the sequence (P62942 whole entry, species assumed) above

CO[C@H]1C[C@@H]2CC[C@@H](C)[C@@](O)(O2)C(=O)C(=O)N2CCCC[C@H]2C(=O)O[C@H]([C@H](C)C[C@@H]2CC[C@@H](O)[C@H](OC)C2)CC(=O)[C@H](C)/C=C(\C)[C@@H](O)[C@@H](OC)C(=O)[C@H](C)C[C@H](C)/C=C/C=C/C=C/1C [RAPA, Rapamycin]
IC50 ([1]; Mus musculus, Thymocyte): 6 nM

COC1CC2CCC(C)C(O)(O2)C(=O)C(=O)N2CCCCC2C(=O)OC(C(C)CC2CCC(OC(=O)CNC(=O)CCCCC3SCC4NC(=O)NC43)C(OC)C2)CC(=O)C(C)C=C(C)C(O)C(OC)C(=O)C(C)CC(C)C=CC=CC=C1C (stereo not shown) [rapamycin-42-biotin glycinate ester]
immunosuppressive activity in the LAF assay (in words) [1]: equivalent immunosuppressive activity | 210 kDa protein isolated by modified procedure (in words) (210 kDa Protein [2]): Only background levels

COC1CC2CCC(C)C(O)(O2)C(=O)C(=O)N2CCCCC2C(=O)OC(C(C)CC2CCC(O)C(OC)C2)CC(=O)C(C)/C=C(\C)C(O)CC(=O)C(C)CC(C)/C=C/C=C/C=C/1C (stereo not shown) [demethoxyrapamycin]
210 kDa protein isolated with compound:GST-FKBP12 complex (in words) (210 kDa Protein [3]): same proteins were isolated | IC50 ([1]; mitogen-stimulated thymocyte proliferation, FK506: mechanism of action is different): 58 nM | Ki (FKBP12): 4.4 nM

C=CC[C@@H]1/C=C(\C)C[C@H](C)C[C@H](OC)[C@H]2O[C@@](O)(C(=O)C(=O)N3CCCC[C@H]3C(=O)O[C@H](/C(C)=C/[C@@H]3CC[C@@H](O)[C@H](OC)C3)[C@H](C)[C@@H](O)CC1=O)[C@H](C)C[C@@H]2OC [FK506]
IC50 ([1]; Mus musculus, Thymocyte): 3 nM
